Experimental data reported in article PMC8019204 (Cancer Science, 2021).
Several values for one entry are separate records, joined by “and”; a condition that tells them apart may be missing. Identical values can stand only once. Like-named read-outs stand apart in the source and are kept apart here.

Key:
[1] = system: MET‐amplified NSCLC
[2] = system: METΔex14‐mutated NSCLC
[3] = GEOMETRY mono-1: safety; type: in vivo, human
[4] = 2/3L, cohort 1a GCN ≥ 10 (n = 11)
[5] = 2/3L, cohort 1b GCN ≥ 6 to <10 (n = 1)
[6] = 2/3L, cohort 2 GCN ≥ 4 to <6 (n = 10)
[7] = 1L group, the one patient with PR

CNC(=O)c1ccc(-c2cnc3ncc(Cc4ccc5ncccc5c4)n3n2)cc1F [capmatinib, Capmatinib]
Median DOR ([1]; 1L, cohort 5a GCN ≥ 10): 8.2 months
ORR (BIRC) ([1]; 1L, cohort 5a GCN ≥ 10 (n = 2)): 100%
Median DOR ([1]; 2/3L, cohort 1a GCN ≥ 10): 8.3 months
DCR (BIRC) [1, 4]: 81.8%
ORR (BIRC) [1, 4]: 45.5%
DCR (BIRC) [1, 5]: 100.0%
ORR (BIRC) [1, 5]: 0%
Median DOR ([1]; 2/3L, cohort 2 GCN ≥ 4 to <6): 9.7
DCR (BIRC) [1, 6]: 50.0%
ORR (BIRC) [1, 6]: 10%
DCR (BIRC) ([1]; 2/3L, cohort 3 GCN < 4 (n = 6)): 66.7%
ORR (BIRC) ([1]; 2/3L, cohort 3 GCN < 4 (n = 6)): 16.7%
Best overall response: CR ([2]; 1L group (cohort 5b, n = 2)): 0 n (%) of patients
Best overall response: Non‐CR/non‐PD ([2]; 1L group (cohort 5b, n = 2)): 0 n (%) of patients
Best overall response: PD ([2]; 1L group (cohort 5b, n = 2)): 0 n (%) of patients
Best overall response: PR ([2]; 1L group (cohort 5b, n = 2)): 1 (50.0) n (%) of patients
Best overall response: SD ([2]; 1L group (cohort 5b, n = 2)): 1 (50.0) n (%) of patients
Best overall response: Unknown ([2]; 1L group (cohort 5b, n = 2)): 0 n (%) of patients
DOR [2, 7]: 4.24 months
Decrease in lesion size [2, 7]: 76.5%
Time to confirmed PD after starting capmatinib [2, 7]: 168 days and 5.5 months
DCR (BIRC) ([2]; 2/3L group (cohort 4)): 81.8%
Median PFS (BIRC) ([2]; 2/3L group (cohort 4)): 4.70 months
ORR (BIRC) ([2]; 2/3L group (cohort 4)): 36.4%
Best overall response: CR ([2]; 2/3L group (cohort 4, n = 11)): 0 n (%) of patients
Best overall response: Non‐CR/non‐PD ([2]; 2/3L group (cohort 4, n = 11)): 0 n (%) of patients
Best overall response: PD ([2]; 2/3L group (cohort 4, n = 11)): 1 (9.1) n (%) of patients
Best overall response: PR ([2]; 2/3L group (cohort 4, n = 11)): 4 (36.4) n (%) of patients
Best overall response: SD ([2]; 2/3L group (cohort 4, n = 11)): 5 (45.5) n (%) of patients
Best overall response: Unknown ([2]; 2/3L group (cohort 4, n = 11)): 1 (9.1) n (%) of patients
Median DOR (95% CI) ([2]; 2/3L group (cohort 4, n = 11)): NE (3.35–NE)
Median TTR (95% CI) ([2]; 2/3L group (cohort 4, n = 11)): NE (1.38–NE)
Probability estimate at 3 mo for TTR (95% CI) ([2]; 2/3L group (cohort 4, n = 11)): 36.4 (15.5‐70.3)
Tumor shrinkage, deep response ([2]; 2/3L group, a patient with PR): ~ 80%
Brain response per independent neuroradiologist review ([2]; 2/3L group, one patient with brain metastases, CT 12 weeks after starting capmatinib): partial resolution of brain lesions
Tumor shrinkage, deep response ([2]; one patient in each group (1L and 2/3L)): ~ 80%
Treatment‐related AE: Nausea ([3]; 45 Japanese patients): 35.6%
Treatment‐related AE: Oedema peripheral ([3]; 45 Japanese patients): 31.1%
Treatment‐related AE: blood creatinine increased ([3]; 45 Japanese patients): 53.3%
Capmatinib interrupted due to AEs ([3]; METΔex14 1L group (n = 2)): both
Discontinuation from treatment phase, reason: Adverse event ([3]; METΔex14 1L group (n = 2)): 1 (50.0) n (%) of patients
Capmatinib interrupted due to AEs ([3]; METΔex14 2/3L group (n = 11)): 10 patients
Discontinuation from treatment phase, reason: Adverse event ([3]; METΔex14 2/3L group (n = 11)): 3 (27.3) n (%) of patients
Dose reductions due to AEs ([3]; METΔex14 2/3L group (n = 11)): eight
AEs leading to permanent discontinuation ([3]; all patients (n = 45)): 8 (17.8) n (%) of patients
AEs requiring dose adjustment/interruption ([3]; all patients (n = 45)): 30 (66.7) n (%) of patients
Any AE ([3]; all patients (n = 45)): 45 (100.0) n (%) of patients
Any grade 3/4 AE ([3]; all patients (n = 45)): 33 (73.3) n (%) of patients
Any grade 3/4 serious AE ([3]; all patients (n = 45)): 18 (40.0) n (%) of patients
Any serious AE ([3]; all patients (n = 45)): 22 (48.9) n (%) of patients
Any treatment‐related grade 3/4 serious AE ([3]; all patients (n = 45)): 9 (20.0) n (%) of patients
Any treatment‐related serious AE ([3]; all patients (n = 45)): 12 (26.7) n (%) of patients
Grade 3/4 AEs leading to permanent discontinuation ([3]; all patients (n = 45)): 4 (8.9) n (%) of patients
Grade 3/4 AEs requiring dose adjustment/interruption ([3]; all patients (n = 45)): 22 (48.9) n (%) of patients
Any grade 3/4 treatment‐related AE ([3]; all patients (n = 45), Table 4): 25 (55.6) n (%) of patients
Any treatment‐related AE ([3]; all patients (n = 45), Table 4): 44 (97.8) n (%) of patients
Deaths ([3]; all patients (n = 45), considered related to NSCLC): 1 (2.2) n (%) of patients
Treatment‐related AE (investigations): ALT increased ([3]; any grade, n = 45): 6 (13.3) n (%) of patients
Treatment‐related AE (investigations): AST increased ([3]; any grade, n = 45): 6 (13.3) n (%) of patients
Treatment‐related AE (investigations): Amylase increased ([3]; any grade, n = 45): 8 (17.8) n (%) of patients
Treatment‐related AE (investigations): Blood ALP increased ([3]; any grade, n = 45): 4 (8.9) n (%) of patients
Treatment‐related AE (investigations): Blood creatinine increased ([3]; any grade, n = 45): 24 (53.3) n (%) of patients
Treatment‐related AE (investigations): Lipase increased ([3]; any grade, n = 45): 6 (13.3) n (%) of patients
Treatment‐related AE (investigations): Neutrophil count decreased ([3]; any grade, n = 45): 5 (11.1) n (%) of patients
